Peptide text beside a SMILES is read from it.
Tested on: APEX2-Gal8
Test: APEX2-Gal8 proximity biotinylation LC/MS/MS proteomic analysis in HEK293T cells
Format: cell-based
Conditions: 100 μM GPN 1 h vs full medium
Method: HEK293T cells transfected with pJJiaDEST-APEX2 or pJJiaDEST-APEX2-Gal8 were incubated with 100 μM GPN (Cayman Chemicals) in full medium for 1 h (confluence of cells remained at 70-80%). Cells were next incubated in 500 μM biotin-phenol (AdipoGen) in full medium for the last 30 min of GPN incubation. A 1 min pulse with 1 mM H2O2 at room temperature was stopped with quenching buffer (10 mM sodium ascorbate, 10 mM sodium azide and 5 mM Trolox in Dulbecco's Phosphate Buffered Saline (DPBS)). All samples were washed twice with quenching buffer, and twice with DPBS.
For LC-MS/MS analysis, cell pellets were lysed in 500 μL ice-cold lysis buffer (6 M urea, 0.3 M Nacl, 1 mM EDTA, 1 mM EGTA, 10 mM sodium ascorbate, 10 mM sodium azide, 5 mM Trolox, 1% glycerol and 25 mm Tris/HCl [PH 7.5]) for 30 min by gentle pipetting. Lysates were clarified by centrifugation and protein concentrations determined as above. Streptavidin-coated magnetic beads (Pierce) were washed with lysis buffer. 3 mg of each sample was mixed with 100 μL of streptavidin bead. The suspensions were gently rotated at 4° C. for overnight to bind biotinylated proteins. The flowthrough after enrichment was removed and the beads were washed in sequence with 1 mL IP buffer (150 mM NaCl, 10 mM Tris-HCl pH8.0, 1 mM EDTA, 1 mM EGTA, 1% Triton X-100) twice; 1 mL 1M KCl; 1 mL of 50 mM Na2CO3; 1 mL 2M Urea in 20 mM 1Tris HCl pH8; 1 mL IP buffer. Biotinylated proteins were eluted, 5-10% of the sample processed for Western Blot and 90-95% of the sample processed for mass spectrometry.
Digested peptides were analyzed by LC-MS/MS on a Thermo Scientific Q Exactive Plus Orbitrap Mass spectrometer in conjunction Proxeon Easy-nLC II HPLC (Thermo Scientific) and Proxeon nanospray source. […]
Tandem mass spectra were extracted by Proteome Discoverer version 2.2. […] All MS/MS samples were analyzed using Sequest-HT (XCorr Only)(Thermo Fisher Scientific, San Jose, Calif., USA; in Proteome Discoverer 2.2.0.388). […] Precursor intensity was determined using Proteome Discoverer 2.2 using the Minor Feature detector with the default options. […]

NCC(=O)N[C@@H](Cc1ccccc1)C(=O)Nc1ccc2ccccc2c1 [GPN, glycyl-L-phenylalanine 2-naphththylamide] (HELM PEPTIDE1{G.F.[c1ccc2cc(N[*:1])ccc2c1]}$$$$V2.0)
> 100 fold: decrease in spectral counts of mTOR proximal to APEX2-Gal8 | increase in MS signal intensity of peptide precursor ions of LAMTOR1/p18, SLC38A9 and RagA/B | increase in spectral counts of SLC38A9 and RagA/B proximal to APEX2-Gal8
